Data from US20160122386A1, “V1A RECEPTOR AGONISTS” (FERRING B.V., priority 2014, published 2016).
Like-named read-outs stand apart in the source and are kept apart here. Starred links: 1 amine or outer side, 2 acyl side, 3 side chain; linkers in the order of their positions; H or OH if unused. Positions of bridges follow the written chain, without caps; N, C: chain ends. Non-standard residues stand in square brackets, D forms with d. Residues, ends and D or L forms follow the SMILES beside them. Chains are numbered I, II in the order given. *: point of attachment. isoGln = NC(=O)[C@H](CCC(=O)[*:2])N[*:1]; εLys = N[C@@H](CCCCN[*:1])C(=O)[*:2]; 3Pal = N[C@@H](Cc1cccnc1)C(=O)O; Orn = NCCC[C@H](N)C(=O)O; Dab = NCC[C@H](N)C(=O)O; PhAc = O=C(Cc1ccccc1)*

Target: T1, human V1aR (Homo sapiens, UniProt P37288)
T1 construct: expressed in transfected cells
T1 sequence (P37288 whole entry): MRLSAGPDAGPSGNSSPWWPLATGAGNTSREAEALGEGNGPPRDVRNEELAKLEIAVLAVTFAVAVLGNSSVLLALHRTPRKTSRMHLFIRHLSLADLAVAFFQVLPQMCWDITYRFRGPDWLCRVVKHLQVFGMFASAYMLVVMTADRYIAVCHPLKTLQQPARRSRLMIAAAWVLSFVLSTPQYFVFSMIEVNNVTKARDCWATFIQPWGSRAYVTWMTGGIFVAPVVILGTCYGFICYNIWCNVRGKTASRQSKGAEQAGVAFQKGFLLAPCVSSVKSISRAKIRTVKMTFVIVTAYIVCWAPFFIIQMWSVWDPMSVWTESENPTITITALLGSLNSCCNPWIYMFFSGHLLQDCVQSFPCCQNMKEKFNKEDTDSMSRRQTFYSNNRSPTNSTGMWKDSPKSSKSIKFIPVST
Assay: Agonist activity at vasopressin V1a receptors, cell-based FLIPR calcium assay
Settings: for Emax: read-out: Efficacy Avg. (%)
Protocol: Efficacy (% MPE) is also determined as the percentage of maximal possible effect. This agonist assay utilizes cells from a stable cell line (HEK-flpin) expressing the vasopressin V1a receptor. Intracellular calcium increase in response to agonist is measured through real-time fluorescence of an intracellular calcium-sensitive dye. Cells are exposed to varying concentrations of test agonist compounds whereupon release of intracellular calcium is measured to determine the agonist potency and efficacy.
The cell line stably expresses the lacZ-Zeocin™ fusion gene and is designed for use with the Flp-In™ expression vector containing the gene of interest and the Flp recombinase expression plasmid, pOG44. The cell line contains a single integrated Flp Recombination Target (FRT) site from pFRT/lacZeo or pFRT/lacZeo2. To generate the HEK-flpin cell line stably expressing the human V1aR, the cells were co-transfected with the Flp-In™ expression vector containing the gene of interest (pcDNA5/FRT-hV1aR) and the Flp recombinase expression plasmid pOG44. Flp recombinase mediates insertion of the Flp-In™ expression vector into the genome at the integrated FRT site through site-specific DNA recombination. Stable cell lines expressing the hV1aR from the Flp-In™ expression vector can be generated by selection using hygromycin B. See Life Technologies/Invitrogen manual, Growth and Maintenance of Flp-In™ Cell Lines, Version E, published Feb.
Efficacy of this compound was set to be 100%. A stock solution of 5 mM was made up in DMSO and stored at −20° C.
HEK-flpin-hV1aR, cmcqV1aR, dV1aR and pV1aR cells were maintained in DMEM containing 10% (v/v) FBS-HI, 4 mM GlutaMAX™-I, 25 μg/mL Hygromycin B at 37° C. under 5% CO2 in a humidified atmosphere. Subculture was achieved by splitting semi-confluent cultures 1:3 to 1:6.
All compounds were made up in 100% DMSO at 10 mM stock concentrations and stored at −20° C. The compounds were allowed to thaw just before the assay. […] Typical dilution procedure of 10× final assay concentration involved a 1:100 top dilution (e.g., 2 μl Stock into 198 μl dilution medium) followed by half-log serial dilutions (e.g., 25.3 μl into 54.7 μl dilution medium supplemented with 1% DMSO (v/v)). (Dilution media consisted of phenol-red free DMEM containing 10% FBS-HI, 4 mM GlutaMAX™-I). […] The final DMSO concentration in the assay was 0.1%.
Loading Buffer was prepared by dissolving 1 vial of Calcium 4 Assay reagent in 100 mL of 1× HBSS-20 mM Hepes buffer.
The cells were loaded with Loading Buffer as follows. Cell plates were removed from the incubator and 20 μl of Loading Buffer containing probenecid (2.5 mM) was added to each well. The cells were incubated for 1 hr at 37° C. under 5% CO2 in a humidified atmosphere. The calcium image was obtained as follows.
The cell plates were transferred to FLIPR Tetra, along with a 384 well V-bottom plate pre-loaded with half-log concentrations of test compounds at 10× final test concentrations. The remaining steps of the assay were carried forward by FLIPR Tetra. A baseline reading was taken at 1-second (s) intervals for 5s followed by the addition of 5 μl of 10× compounds (test, reference, or Blank). The agonist-induced fluorescence signal was then measured for 180 s with initial 120 readings at 1-second intervals followed by 20 readings at 3-second intervals. Overall, each well in the FLIPR assay was composed of the following components in a total volume of 50 μl: 20 μl cells; 20 μl Calcium 4 Loading Buffer; […] 10× test or reference compound.

[1] = HEK-flpin cells stably expressing hV1aR, intracellular calcium fluorescence, averaged, read-out: EC50 (Avg)

Row | SMILES | EC50 [nM] | Emax [%] | EC50 [1] [nM]
1 | CC[C@H](C)[C@@H]1NC(=O)[C@H](Cc2ccccc2)NC(=O)[C@@H](N)CSSC[C@@H](C(=O)N2CCC[C@H]2C(=O)N[C@@H](CCCNCCCCCNC(=O)CC[C@H](NC(=O)[C@H](CCCNC(=N)N)NC(=O)[C@@H]2CCCN2C(=O)[C@H](Cc2c[nH]cn2)NC(=O)[C@H](CC(N)=O)NC(=O)[C@H](CCC(N)=O)NC(=O)[C@H](Cc2ccccc2)NC(=O)[C@@H](Cc2ccc(OC)cc2)NC(=O)Cc2ccccc2)C(N)=O)C(=O)NCC(N)=O)NC(=O)[C@H](CC(N)=O)NC(=O)[C@H](CCC(N)=O)NC1=O [Compound 13] | 2.4 | 48 | –
2 | CC[C@H](C)[C@@H]1NC(=O)[C@H](Cc2ccccc2)NC(=O)[C@@H](N)CSSC[C@@H](C(=O)N2CCC[C@H]2C(=O)N[C@@H](CCCNCCCCCNC(=O)CC[C@H](NC(=O)[C@H](CCCNC(=N)N)NC(=O)[C@@H]2CCCN2C(=O)[C@H](CCC(N)=O)NC(=O)[C@H](CC(N)=O)NC(=O)[C@H](CCC(N)=O)NC(=O)[C@H](Cc2ccccc2)NC(=O)[C@@H](Cc2ccc(OC)cc2)NC(=O)Cc2ccccc2)C(N)=O)C(=O)NCC(N)=O)NC(=O)[C@H](CC(N)=O)NC(=O)[C@H](CCC(N)=O)NC1=O [Compound 14] | 2.1 | 37 | –
3 | CC[C@H](C)[C@@H]1NC(=O)[C@H](Cc2ccccc2)NC(=O)[C@@H](N)CSSC[C@@H](C(=O)N2CCC[C@H]2C(=O)N[C@@H](CCCNCCCCCNC(=O)CC[C@H](NC(=O)[C@H](CCCNC(=N)N)NC(=O)[C@@H]2CCCN2C(=O)[C@H](CCCNC(N)=O)NC(=O)[C@H](CC(N)=O)NC(=O)[C@H](CCC(N)=O)NC(=O)[C@H](Cc2ccccc2)NC(=O)[C@@H](Cc2ccc(OC)cc2)NC(=O)Cc2ccccc2)C(N)=O)C(=O)NCC(N)=O)NC(=O)[C@H](CC(N)=O)NC(=O)[C@H](CCC(N)=O)NC1=O [Compound 15] | 2.3 | 44 | –
4 | CC[C@H](C)[C@@H]1NC(=O)[C@H](Cc2ccccc2)NC(=O)[C@@H](N)CSSC[C@@H](C(=O)N2CCC[C@H]2C(=O)N[C@@H](CCCNCCCCCNC(=O)CC[C@H](NC(=O)[C@H](CCCNC(=N)N)NC(=O)[C@@H]2CCCN2C(=O)[C@H](CCN)NC(=O)[C@H](CC(N)=O)NC(=O)[C@H](CCC(N)=O)NC(=O)[C@H](Cc2ccccc2)NC(=O)[C@@H](Cc2ccc(OC)cc2)NC(=O)Cc2ccccc2)C(N)=O)C(=O)NCC(N)=O)NC(=O)[C@H](CC(N)=O)NC(=O)[C@H](CCC(N)=O)NC1=O [Compound 16] | 2.4 | 46 | –
5 | CCCCCCC(=O)N[C@H](Cc1ccc(OC)cc1)C(=O)N[C@@H](Cc1ccccc1)C(=O)N[C@@H](CCC(N)=O)C(=O)N[C@@H](CC(N)=O)C(=O)N[C@@H](C)C(=O)N1CCC[C@H]1C(=O)N[C@@H](CCCNC(=N)N)C(=O)N[C@@H](CCC(=O)NCCCCCCNCCC[C@H](NC(=O)[C@@H]1CCCN1C(=O)[C@@H]1CSSC[C@H](N)C(=O)N[C@@H](Cc2ccccc2)C(=O)N[C@@H]([C@@H](C)CC)C(=O)N[C@@H](CCC(N)=O)C(=O)N[C@@H](CC(N)=O)C(=O)N1)C(=O)NCC(N)=O)C(N)=O [Compound 17] | – | 62 | 2.9
6 | CC[C@H](C)[C@@H]1NC(=O)[C@H](Cc2ccccc2)NC(=O)[C@@H](N)CSSC[C@@H](C(=O)N2CCC[C@H]2C(=O)N[C@@H](CCNC(=O)[C@@H](N)CCCCNC(=O)CC[C@H](NC(=O)[C@H](CCCNC(=N)N)NC(=O)[C@@H]2CCCN2C(=O)[C@H](C)NC(=O)[C@H](CC(N)=O)NC(=O)[C@H](CCC(N)=O)NC(=O)[C@H](Cc2ccccc2)NC(=O)[C@@H](Cc2ccc(OC)cc2)NC(=O)Cc2ccccc2)C(N)=O)C(=O)NCC(N)=O)NC(=O)[C@H](CC(N)=O)NC(=O)[C@H](CCC(N)=O)NC1=O [Compound 18] (I: H-CFIQNCP[Dab]G-NH2 / II: PhAc-[dY](Me)FQNAPR[isoGln][εLys]; disulfide I:1-I:6; amide I:8-II:C) | 3.9 | 49 | –
7 | CC[C@H](C)[C@@H]1NC(=O)[C@H](Cc2ccccc2)NC(=O)[C@@H](N)CSSC[C@@H](C(=O)N2CCC[C@H]2C(=O)N[C@@H](CCCNCCCCCCNC(=O)CC[C@H](NC(=O)[C@H](CCCNC(=N)N)NC(=O)[C@@H]2CCCN2C(=O)[C@H](C)NC(=O)[C@H](CC(N)=O)NC(=O)[C@H](CCC(N)=O)NC(=O)[C@H](Cc2ccccc2)NC(=O)[C@@H](Cc2ccc(OC)cc2)NC(=O)C2CCCCC2)C(N)=O)C(=O)NCC(N)=O)NC(=O)[C@H](CC(N)=O)NC(=O)[C@H](CCC(N)=O)NC1=O [Compound 19] | – | 50 | 2.5
8 | CC[C@H](C)[C@@H]1NC(=O)[C@H](Cc2ccccc2)NC(=O)[C@@H](N)CSSC[C@@H](C(=O)N2CCC[C@H]2C(=O)N[C@@H](CCCNCCCCCNC(=O)CCNC(=O)CC[C@H](NC(=O)[C@H](CCCNC(=N)N)NC(=O)[C@@H]2CCCN2C(=O)[C@H](C)NC(=O)[C@H](CC(N)=O)NC(=O)[C@H](CCC(N)=O)NC(=O)[C@H](Cc2ccccc2)NC(=O)[C@@H](Cc2ccc(OC)cc2)NC(=O)Cc2ccccc2)C(N)=O)C(=O)NCC(N)=O)NC(=O)[C@H](CC(N)=O)NC(=O)[C@H](CCC(N)=O)NC1=O [Compound 20] | 2.7 | 42 | –
9 | CC[C@H](C)[C@@H]1NC(=O)[C@H](Cc2ccccc2)NC(=O)[C@@H](N)CSSC[C@@H](C(=O)N2CCC[C@H]2C(=O)N[C@@H](CCCNCCCCCCNC(=O)CC[C@H](NC(=O)[C@H](CCCNC(=N)N)NC(=O)[C@@H]2CCCN2C(=O)[C@H](C)NC(=O)[C@H](CC(N)=O)NC(=O)[C@H](CCC(N)=O)NC(=O)[C@H](Cc2ccccc2)NC(=O)[C@@H](Cc2ccc(OC)cc2)NC(=O)CC(C)C)C(N)=O)C(=O)NCC(N)=O)NC(=O)[C@H](CC(N)=O)NC(=O)[C@H](CCC(N)=O)NC1=O [Compound 21] | – | 47 | 1.5
10 | CC[C@H](C)[C@@H]1NC(=O)[C@H](Cc2ccccc2)NC(=O)[C@@H](N)CSSC[C@@H](C(=O)N2CCC[C@H]2C(=O)N[C@@H](CCCNC(=O)[C@@H](N)CCCCNC(=O)CC[C@H](NC(=O)[C@H](CCCNC(=N)N)NC(=O)[C@@H]2CCCN2C(=O)[C@H](CCCNC(=N)N)NC(=O)[C@H](CC(N)=O)NC(=O)[C@@H](NC(=O)[C@H](Cc2ccccc2)NC(=O)[C@@H](Cc2ccc(OC)cc2)NC(=O)Cc2ccccc2)[C@@H](C)O)C(N)=O)C(=O)NCC(N)=O)NC(=O)[C@H](CC(N)=O)NC(=O)[C@H](CCC(N)=O)NC1=O [Compound 22] (I: H-CFIQNCP[Orn]G-NH2 / II: PhAc-[dY](Me)FTNRPR[isoGln][εLys]; disulfide I:1-I:6; amide I:8-II:C) | 0.95 | 29 | –
11 | CC[C@H](C)[C@@H]1NC(=O)[C@H](Cc2ccccc2)NC(=O)[C@@H](O)CSSC[C@@H](C(=O)N2CCC[C@H]2C(=O)N[C@@H](CCCNCCCCCNC(=O)CC[C@H](NC(=O)[C@H](CCCNC(=N)N)NC(=O)[C@@H]2CCCN2C(=O)[C@H](C)NC(=O)[C@H](CC(N)=O)NC(=O)[C@H](CCC(N)=O)NC(=O)[C@H](Cc2ccccc2)NC(=O)[C@@H](Cc2ccc(OC)cc2)NC(=O)Cc2ccccc2)C(N)=O)C(=O)NCC(N)=O)NC(=O)[C@H](CC(N)=O)NC(=O)[C@H](CCC(N)=O)NC1=O [Compound 23] | 1.7 | 51 | –
12 | CC[C@H](C)[C@@H]1NC(=O)[C@H](Cc2ccccc2)NC(=O)[C@@H](N)CSSC[C@@H](C(=O)N2CCC[C@H]2C(=O)N[C@@H](CCCNC(=O)[C@@H](N)CCCCNC(=O)CC[C@H](NC(=O)[C@H](CCCNC(=N)N)NC(=O)[C@@H]2CCCN2C(=O)[C@H](CCCNC(=N)N)NC(=O)[C@H](CC(N)=O)NC(=O)[C@H](Cc2cccnc2)NC(=O)[C@H](Cc2ccccc2)NC(=O)[C@@H](Cc2ccc(OC)cc2)NC(=O)Cc2ccccc2)C(N)=O)C(=O)NCC(N)=O)NC(=O)[C@H](CC(N)=O)NC(=O)[C@H](CCC(N)=O)NC1=O [Compound 24] (I: H-CFIQNCP[Orn]G-NH2 / II: PhAc-[dY](Me)F[3Pal]NRPR[isoGln][εLys]; disulfide I:1-I:6; amide I:8-II:C) | 2.3 | 33 | –
